Results reported in patent US8008291B2 (Mimetica Pty Ltd, priority 2008, dated 2011).
pIC50: −log10 of the molar value.

molecular target: T1, human MC5R (hMC5R) (Homo sapiens, UniProt P33032); experiment: Human MC5R radioligand binding assay (membranes, [125I] NDP-MSH displacement); details: hMC5R binding; tested as trifluoroacetate or hydrochloride salts, or free bases; read-out: MC5R radioligand IC50
T1 construct: purchased Perkin Elmer RBXMC5M400UA
How it was run: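 Frozen human MC5R membranes incubated with test compound and in-house iodogen-labeled, HPLC-purified [125I]NDP-MSH for 1 hr at 37° C. Binding measured as displacement of the radioligand.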

T1 sequence (P33032 whole entry): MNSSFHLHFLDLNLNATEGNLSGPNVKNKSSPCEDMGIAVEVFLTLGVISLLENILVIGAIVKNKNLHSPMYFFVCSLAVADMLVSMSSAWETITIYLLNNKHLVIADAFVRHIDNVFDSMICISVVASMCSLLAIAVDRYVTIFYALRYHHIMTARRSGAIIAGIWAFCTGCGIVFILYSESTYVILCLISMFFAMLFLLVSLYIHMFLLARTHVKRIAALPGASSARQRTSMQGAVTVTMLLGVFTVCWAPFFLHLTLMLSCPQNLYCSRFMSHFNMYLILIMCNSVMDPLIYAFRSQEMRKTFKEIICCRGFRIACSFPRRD

SMILES | pIC50
CC(C)c1ccc(/C=C/C(=O)NC[C@@H]2CCN(CC(c3ccccc3)c3ccccc3)C(=O)[C@H](CCN3CCCCC3)N2)cc1 [Compound 396, (E)-N-(((3S,5S)-1-(2,2-diphenylethyl)-2-oxo-3-(2-(piperidin-1-yl)ethyl)-1,4-diazepan-5-yl)methyl)-3-(4-isopropylphenyl)acrylamide] | > 7.00
Cc1ccc(/C=C/C(=O)NC[C@@H]2CCN(CC(c3ccccc3)c3ccccc3)C(=O)[C@H](CCN3CCCCC3)N2)c(C)c1 [Compound 398, (E)-3-(2,4-dimethylphenyl)-N-(((3S,5S)-1-(2,2-diphenylethyl)-2-oxo-3-(2-(piperidin-1-yl)ethyl)-1,4-diazepan-5-yl)methyl)acrylamide] | > 7.00
Cc1ccc(/C=C/C(=O)NC[C@@H]2CCN(CC(c3ccccc3)c3ccccc3)C(=O)[C@H](CCN)N2)c(C)c1 [Compound 399, (E)-N-(((3S,5S)-3-(2-aminoethyl)-1-(2,2-diphenylethyl)-2-oxo-1,4-diazepan-5-yl)methyl)-3-(2,4-dimethylphenyl)acrylamide] | > 6.00
NCC[C@@H]1N[C@H](CNC(=O)/C=C/c2ccc(F)cc2F)CCN(CC(c2ccccc2)c2ccccc2)C1=O [Compound 401, (E)-N-(((3S,5S)-3-(2-aminoethyl)-1-(2,2-diphenylethyl)-2-oxo-1,4-diazepan-5-yl)methyl)-3-(2,4-difluorophenyl)acrylamide] | > 6.00
O=C(/C=C/c1ccc(Cl)cc1)NC[C@@H]1CCN(CC(c2ccccc2)c2ccccc2)C(=O)[C@H](CNC(=O)C2CCCCC2)N1 [Compound 402, N-(((2S,7S)-7-(((E)-3-(4-chlorophenyl)acrylamido)methyl)-4-(2,2-diphenylethyl)-3-oxo-1,4-diazepan-2-yl)methyl)cyclohexanecarboxamide] | > 5.00
O=C(/C=C/c1ccc(Cl)cc1)NC[C@@H]1CCN(CC(c2ccccc2)c2ccccc2)C(=O)[C@H](CCN2CCOCC2)N1 [Compound 403, (E)-3-(4-chlorophenyl)-N-(((3S,5S)-1-(2,2-diphenylethyl)-3-(2-morpholinoethyl)-2-oxo-1,4-diazepan-5-yl)methyl)acrylamide] | > 7.00
Cc1ccc(C)n1CC[C@@H]1N[C@H](CNC(=O)/C=C/c2ccc(Cl)cc2)CCN(CC(c2ccccc2)c2ccccc2)C1=O [Compound 404, (E)-3-(4-chlorophenyl)-N-(((3S,5S)-3-(2-(2,5-dimethyl-1 H-pyrrol-1-yl)ethyl)-1-(2,2-diphenylethyl)-2-oxo-1,4-diazepan-5-yl)methyl)acrylamide] | > 6.00
CC1CCC(C)N1CC[C@@H]1N[C@H](CNC(=O)/C=C/c2ccc(Cl)cc2)CCN(CC(c2ccccc2)c2ccccc2)C1=O (stereo partly drawn) [Compound 405, (E)-3-(4-chlorophenyl)-N-(((3S,5S)-3-(2-(2,5-dimethylpyrrolidin-1-yl)ethyl)-1-(2,2-diphenylethyl)-2-oxo-1,4-diazepan-5-yl)methyl)acrylamide] | > 7.00

The next lines start with the values.

pIC50 | SMILES
> 7.00 | CC(C)[C@H](CN1CC[C@@H](CNC(=O)c2ccc3ccccc3c2)N[C@@H](CCN2CCCCC2)C1=O)c1ccccc1 [Compound 395, N-(((3S,5S)-1-((S)-3-methyl-2-phenylbutyl)-2-oxo-3-(2-(piperidin-1-yl)ethyl)-1,4-diazepan-5-yl)methyl)-2-naphthamide]
> 6.00 | CC(C)c1ccc(/C=C/C(=O)NC[C@@H]2CCN(CC(c3ccccc3)c3ccccc3)C(=O)[C@H](CCN)N2)cc1 [Compound 397, (E)-N-(((3S,5S)-3-(2-aminoethyl)-1-(2,2-diphenylethyl)-2-oxo-1,4-diazepan-5-yl)methyl)-3-(4-isopropylphenyl)acrylamide]
> 7.00 | O=C(/C=C/c1ccc(F)cc1F)NC[C@@H]1CCN(CC(c2ccccc2)c2ccccc2)C(=O)[C@H](CCN2CCCCC2)N1 [Compound 400, (E)-3-(2,4-difluorophenyl)-N-(((3S,5S)-1-(2,2-diphenylethyl)-2-oxo-3-(2-(piperidin-1-yl)ethyl)-1,4-diazepan-5-yl)methyl)acrylamide]
